Common to all, as to format: biochemical
One assay has as its target T1, GSK-3β (Homo sapiens, UniProt P49841).
T1 construct: GST (N, cleaved yes); made in house; host or cells: Escherichia coli BL21-Codon Plus (DE3)
Briefly: GSK-3β kinase assay (Z'-LYTE Kinase Assay kit Ser/Thr 9 Peptide). The note with it: for IC50: 50 nM enzyme, 30 μM ATP, 2 μM substrate peptide, triplicate, mean ± SE, read-out: GSK-3β inhibitory activity IC50 (nM) ± SE; for Selectivity for GSK-3β over other tested kinases: versus PKC-epsilon, JAK2, BRAF, IKK2 and Drak2. As for the experimental part:
(§1) GSK3β belongs to CMGC family. Here, the other family members were used to evaluate the selectivity of GSK3β inhibitors, including PKC-epsilon (AGC family), JAK2 (TK family), Braf (TKL family), DRAK2 (CAMK family) and IKKβ (other family).The recombinant GST-GSK-3βprotein was expressed in Escherichia coli strain BL21-Codon Plus (DE3), purified by GSTrap affinity chromatography, and cleaved by thrombin. The GSK-3β kinase assay was carried out with the Z´-LYTETM Kinase Assay kit Ser/Thr 9 Peptide substrate (Invitrogen, Grand, NY, USA) in 10 μL reaction volume containing 50 nM enzyme, 30 μM ATP and 2 μM substrate peptide. Drak2 Proteins were presented by professor Jiang-ping Wu (Laboratory of Immunology, Research Centre, CHUM, Notre Dame Hospital, Pavilion DeSève). The Drak2 kinase reaction was performed in a final assay volume of 3.4 μL using the ADP-GLO Kinase Assay Kit (Promega, Madison, WI, USA), according the ADP-GLO protocol and read on an EnVision plate reader. The recombinant PKC-epsilon, IKKβ, and JAK2 with N-terminal His-tag were expressed using baculovirus expression system and purified with Ni-Beads. BRAF protein was from Carna Biosciences, Inc. (Kobe Port Island, Japan). And the related kinase reactions were performed in a final assay volume of 10 μL using the related HTRF Assay Kit (Cisbio, Codolet, France). Reactions were according the HTRF protocol and read on an EnVision plate reader. All reactions were carried out in triplicate. […] Data were expressed as mean ± SE.

The target in another assay is T2, PKC-epsilon (Homo sapiens, UniProt Q02156).
T2 construct: His-tag (N); made in house
T2 sequence (Q02156 1-737): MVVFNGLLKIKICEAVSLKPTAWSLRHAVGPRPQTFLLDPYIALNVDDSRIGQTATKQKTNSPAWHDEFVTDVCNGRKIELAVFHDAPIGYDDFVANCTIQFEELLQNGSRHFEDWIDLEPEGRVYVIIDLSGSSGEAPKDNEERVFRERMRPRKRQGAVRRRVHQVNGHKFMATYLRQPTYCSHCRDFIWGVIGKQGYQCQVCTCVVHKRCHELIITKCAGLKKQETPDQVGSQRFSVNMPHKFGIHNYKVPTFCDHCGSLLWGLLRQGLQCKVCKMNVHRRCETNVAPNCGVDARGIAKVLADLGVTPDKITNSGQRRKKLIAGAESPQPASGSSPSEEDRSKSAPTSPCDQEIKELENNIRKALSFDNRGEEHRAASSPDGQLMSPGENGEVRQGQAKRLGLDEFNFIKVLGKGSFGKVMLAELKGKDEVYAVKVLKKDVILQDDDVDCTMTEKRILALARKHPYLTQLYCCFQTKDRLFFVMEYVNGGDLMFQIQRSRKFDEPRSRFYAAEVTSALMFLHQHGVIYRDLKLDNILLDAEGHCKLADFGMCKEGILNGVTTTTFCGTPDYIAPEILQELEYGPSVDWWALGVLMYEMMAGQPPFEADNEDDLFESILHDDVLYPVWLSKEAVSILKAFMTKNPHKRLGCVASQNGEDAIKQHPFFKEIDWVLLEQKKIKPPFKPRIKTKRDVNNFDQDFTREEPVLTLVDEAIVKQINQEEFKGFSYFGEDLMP
Briefly: PKC-epsilon kinase assay (HTRF). The note with it: read-out: PKC-epsilon inhibition% at 0.8 μg/mL (~2 μM). As for the experimental part: as §1
Background: TR-FRET usually uses a lanthanide donor and a delayed reading to cut background.

In another assay the target is T3, JAK2 (Homo sapiens, UniProt O60674).
T3 construct: His-tag (N); made in house
In words: JAK2 kinase assay (HTRF). The note with it: read-out: JAK2 inhibition% at 0.8 μg/mL (~2 μM). As for the experimental part:
as §1

A further assay addresses T4, BRAF (Homo sapiens, UniProt P15056).
T4 construct: purchased Carna Biosciences, Inc
Briefly: BRAF kinase assay (HTRF). The note with it: read-out: BRAF inhibition% at 0.8 μg/mL (~2 μM). As for the experimental part: as §1

The next assay addresses T5, IKK2 (Homo sapiens, UniProt O14920).
T5 construct: His-tag (N); made in house
T5 sequence (O14920 1-756): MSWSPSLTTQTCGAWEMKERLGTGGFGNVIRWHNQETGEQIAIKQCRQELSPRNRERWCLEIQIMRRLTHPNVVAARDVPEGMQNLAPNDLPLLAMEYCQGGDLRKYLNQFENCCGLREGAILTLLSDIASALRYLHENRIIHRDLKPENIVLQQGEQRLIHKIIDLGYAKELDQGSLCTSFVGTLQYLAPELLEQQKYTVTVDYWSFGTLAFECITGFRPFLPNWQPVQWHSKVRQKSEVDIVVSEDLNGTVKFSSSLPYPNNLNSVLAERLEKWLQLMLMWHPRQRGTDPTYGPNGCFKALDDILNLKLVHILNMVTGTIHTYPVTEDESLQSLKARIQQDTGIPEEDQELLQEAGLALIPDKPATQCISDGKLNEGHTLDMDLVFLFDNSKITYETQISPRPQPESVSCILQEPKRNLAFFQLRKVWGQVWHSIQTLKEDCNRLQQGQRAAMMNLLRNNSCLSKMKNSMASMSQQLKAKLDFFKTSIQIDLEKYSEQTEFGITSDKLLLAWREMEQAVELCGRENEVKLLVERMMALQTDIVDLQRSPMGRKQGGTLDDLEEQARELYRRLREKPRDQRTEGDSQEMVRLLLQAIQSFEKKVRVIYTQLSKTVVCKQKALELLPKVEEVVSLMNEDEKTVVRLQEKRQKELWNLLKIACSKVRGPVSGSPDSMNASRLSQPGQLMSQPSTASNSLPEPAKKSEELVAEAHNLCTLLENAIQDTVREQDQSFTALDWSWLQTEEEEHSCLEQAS
Briefly: IKK2 (IKKβ) kinase assay (HTRF). The note with it: read-out: IKK2 inhibition% at 0.8 μg/mL (~2 μM). On the procedure:
as §1

For the next assay, the target named is T6, Drak2 (Homo sapiens, UniProt O94768).
T6 sequence (O94768 1-372): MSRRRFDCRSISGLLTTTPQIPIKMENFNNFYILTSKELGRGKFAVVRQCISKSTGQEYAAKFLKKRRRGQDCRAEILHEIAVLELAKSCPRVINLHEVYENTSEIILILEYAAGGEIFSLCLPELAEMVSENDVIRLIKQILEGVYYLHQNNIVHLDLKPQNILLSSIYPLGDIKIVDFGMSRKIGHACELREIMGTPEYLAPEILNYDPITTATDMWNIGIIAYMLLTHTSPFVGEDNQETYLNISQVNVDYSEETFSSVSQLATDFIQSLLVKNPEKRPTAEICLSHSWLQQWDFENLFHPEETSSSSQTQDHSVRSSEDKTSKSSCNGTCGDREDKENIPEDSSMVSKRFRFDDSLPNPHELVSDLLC
Briefly: Drak2 kinase assay (ADP-GLO). The note with it: read-out: Drak2 inhibition% at 0.8 μg/mL (~2 μM). As for the experimental part: as §1
Background: ADP-Glo turns the ADP formed in a reaction into a luminescent signal.

T1 sequence (P49841 whole entry): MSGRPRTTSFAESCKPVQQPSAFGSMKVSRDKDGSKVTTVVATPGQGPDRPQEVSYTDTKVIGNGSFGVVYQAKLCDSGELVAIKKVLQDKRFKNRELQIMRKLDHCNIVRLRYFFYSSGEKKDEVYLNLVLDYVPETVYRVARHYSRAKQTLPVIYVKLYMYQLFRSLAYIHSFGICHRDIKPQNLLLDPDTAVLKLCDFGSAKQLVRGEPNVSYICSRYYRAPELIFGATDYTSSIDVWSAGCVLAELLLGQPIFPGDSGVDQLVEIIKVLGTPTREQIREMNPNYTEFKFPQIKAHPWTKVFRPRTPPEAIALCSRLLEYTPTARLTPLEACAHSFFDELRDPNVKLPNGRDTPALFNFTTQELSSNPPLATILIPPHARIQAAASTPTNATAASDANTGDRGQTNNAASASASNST
T3 sequence (O60674 whole entry): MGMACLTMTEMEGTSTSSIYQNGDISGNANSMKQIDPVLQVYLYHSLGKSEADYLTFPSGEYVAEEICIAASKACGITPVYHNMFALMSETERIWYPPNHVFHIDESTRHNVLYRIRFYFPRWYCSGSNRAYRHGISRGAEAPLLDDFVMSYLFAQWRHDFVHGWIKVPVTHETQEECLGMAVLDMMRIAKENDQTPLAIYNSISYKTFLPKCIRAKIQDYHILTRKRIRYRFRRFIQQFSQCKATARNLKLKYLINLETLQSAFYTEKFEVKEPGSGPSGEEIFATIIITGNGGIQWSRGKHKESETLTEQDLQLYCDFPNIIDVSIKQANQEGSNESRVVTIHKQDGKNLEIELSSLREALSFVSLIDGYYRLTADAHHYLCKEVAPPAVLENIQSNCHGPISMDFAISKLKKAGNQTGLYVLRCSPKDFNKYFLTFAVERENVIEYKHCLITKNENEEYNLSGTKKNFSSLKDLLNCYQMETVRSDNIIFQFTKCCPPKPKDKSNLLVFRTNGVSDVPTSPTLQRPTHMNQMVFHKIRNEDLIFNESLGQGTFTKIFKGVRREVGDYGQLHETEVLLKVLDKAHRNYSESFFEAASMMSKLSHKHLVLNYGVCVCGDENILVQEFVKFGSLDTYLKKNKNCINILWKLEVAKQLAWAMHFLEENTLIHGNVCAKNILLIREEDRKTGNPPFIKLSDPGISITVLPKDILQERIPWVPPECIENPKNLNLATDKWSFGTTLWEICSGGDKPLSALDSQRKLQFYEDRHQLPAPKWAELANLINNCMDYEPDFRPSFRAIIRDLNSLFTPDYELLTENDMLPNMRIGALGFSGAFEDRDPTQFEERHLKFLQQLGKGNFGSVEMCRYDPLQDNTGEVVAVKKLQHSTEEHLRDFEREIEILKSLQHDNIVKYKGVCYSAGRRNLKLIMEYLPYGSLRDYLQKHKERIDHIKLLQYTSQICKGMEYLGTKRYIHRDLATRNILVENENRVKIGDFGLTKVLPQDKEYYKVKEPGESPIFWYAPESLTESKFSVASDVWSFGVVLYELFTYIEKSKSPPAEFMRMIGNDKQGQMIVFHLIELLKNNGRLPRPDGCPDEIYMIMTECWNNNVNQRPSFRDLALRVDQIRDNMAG
T4 sequence (P15056 whole entry): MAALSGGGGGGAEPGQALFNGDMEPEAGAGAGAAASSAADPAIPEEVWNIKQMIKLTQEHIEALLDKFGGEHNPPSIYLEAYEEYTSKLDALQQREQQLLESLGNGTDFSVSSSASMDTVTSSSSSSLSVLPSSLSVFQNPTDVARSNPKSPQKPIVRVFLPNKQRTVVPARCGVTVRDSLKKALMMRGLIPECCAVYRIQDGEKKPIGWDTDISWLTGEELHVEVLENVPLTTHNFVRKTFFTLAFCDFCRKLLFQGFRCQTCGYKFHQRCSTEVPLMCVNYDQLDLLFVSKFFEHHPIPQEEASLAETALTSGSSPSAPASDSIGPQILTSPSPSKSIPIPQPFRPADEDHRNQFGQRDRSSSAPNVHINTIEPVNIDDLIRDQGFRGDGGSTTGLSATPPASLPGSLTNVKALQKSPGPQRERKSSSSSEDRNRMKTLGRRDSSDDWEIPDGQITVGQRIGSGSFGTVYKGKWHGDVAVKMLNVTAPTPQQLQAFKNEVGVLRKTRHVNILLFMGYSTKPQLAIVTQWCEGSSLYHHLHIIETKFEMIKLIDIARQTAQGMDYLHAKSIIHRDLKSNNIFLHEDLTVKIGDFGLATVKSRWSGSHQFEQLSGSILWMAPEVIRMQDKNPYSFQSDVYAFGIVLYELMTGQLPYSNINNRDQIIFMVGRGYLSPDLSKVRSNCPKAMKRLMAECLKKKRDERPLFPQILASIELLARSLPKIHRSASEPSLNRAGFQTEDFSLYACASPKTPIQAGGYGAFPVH

As usually defined, the IC50 is the point on the concentration scale where inhibition reaches its midpoint. In the case of `O=C1NC(=O)C(c2noc3ccccc23)=C1c1c[nH]c2ccccc12` [7a, 3-(Benzo[d]isoxazol-3-yl)-4-(1H-indol-3-yl)-1H-pyrrole-2,5-dione], the IC50 at GSK-3β came out at 332 ± 25.7 nM.
On to `O=C1NC(=O)C(c2cn(CCCN3CCCCC3)c3ccccc23)=C1c1noc2ccccc12` [7m, 3-(Benzo[d]isoxazol-3-yl)-4-(1-(3-(piperidin-1-yl)propyl)-1H-indol-3-yl)-1H-pyrrole-2,5-dione], for which the IC50 on GSK-3β is 512 ± 15.6 nM.
Regarding `Cn1cc(C2=C(c3noc4ccccc34)C(=O)NC2=O)c2ccccc21` [7o, 3-(Benzo[d]isoxazol-3-yl)-4-(1-methyl-1H-indol-3-yl)-1H-pyrrole-2,5-dione], the concentration for half-maximal inhibition (IC50) on GSK-3β worked out at 22.1 ± 1.5 nM. Further, the “Selectivity for GSK-3β over other tested kinases” value at GSK-3β is listed as “high selectivity”. Besides, the inhibition at 2 µM is 21.2% at PKC-epsilon; 9.4% at JAK2; 1.1% at BRAF; 2.9% at IKK2; 13.8% at Drak2.
Regarding `O=C1NC(=O)C(c2cn(CCCN3CCOCC3)c3cc(Br)ccc23)=C1c1noc2ccccc12` [7d, 3-(Benzo[d]isoxazol-3-yl)-4-(6-bromo-1-(3-morpholinopropyl)-1H-indol-3-yl)-1H-pyrrole-2,5-dione], on GSK-3β, the IC50 came to 210 ± 8.9 nM.
On to `O=C1NC(=O)C(c2cn(CCCN3CCCC3)c3ccccc23)=C1c1noc2ccccc12` [7n, 3-(Benzo[d]isoxazol-3-yl)-4-(1-(3-(pyrrolidin-1-yl)propyl)-1H-indol-3-yl)-1H-pyrrole-2,5-dione], for which the IC50 at GSK-3β was found to be 659 ± 15.7 nM.
As for `O=C1NC(=O)C(c2cn(CCCN3CCOCC3)c3cc(Cl)ccc23)=C1c1noc2ccccc12` [7e, 3-(Benzo[d]isoxazol-3-yl)-4-(6-chloro-1-(3-morpholinopropyl)-1H-indol-3-yl)-1H-pyrrole-2,5-dione], the IC50 at GSK-3β turned out to be 510 ± 20.1 nM.
The same measure, in the same setting: as for `O=C1NC(=O)C(c2cn(CCCCN3CCOCC3)c3ccccc23)=C1c1noc2ccccc12` [7i, 3-(Benzo[d]isoxazol-3-yl)-4-(1-(4-morpholinobutyl)-1H-indol-3-yl)-1H-pyrrole-2,5-dione], the figure is 411 ± 8.2 nM; as for `O=C1NC(=O)C(c2cn(CCN3CCOCC3)c3ccccc23)=C1c1noc2ccccc12` [7g, 3-(Benzo[d]isoxazol-3-yl)-4-(1-(2-morpholinoethyl)-1H-indol-3-yl)-1H-pyrrole-2,5-dione], 615.6 ± 6.1 nM; as for `O=C1NC(=O)C(c2cn(CCCN3CCOCC3)c3ccccc23)=C1c1noc2ccccc12` [7h, 3-(Benzo[d]isoxazol-3-yl)-4-(1-(3-morpholinopropyl)-1H-indol-3-yl)-1H-pyrrole-2,5-dione], 138 ± 6 nM.
As to `O=C1NC(=O)C(c2cn(CCCO)c3ccccc23)=C1c1noc2ccccc12` [7q, 3-(Benzo[d]isoxazol-3-yl)-4-(1-(3-hydroxypropyl)-1H-indol-3-yl)-1H-pyrrole-2,5-dione], on GSK-3β, the IC50 stood at 38.9 ± 2.6 nM.
With `O=C1NC(=O)C(c2cn(CCCCn3ccnc3)c3ccccc23)=C1c1noc2ccccc12` [7k, 3-(1-(4-(1H-Imidazol-1-yl)butyl)-1H-indol-3-yl)-4-(benzo[d]isoxazol-3-yl)-1H-pyrrole-2,5-dione], at GSK-3β, the IC50 is 89.8 ± 4.5 nM.
Take `COc1ccc2c(c1)c(C1=C(c3noc4ccccc34)C(=O)NC1=O)cn2CCCN1CCOCC1` [7b, 3-(Benzo[d]isoxazol-3-yl)-4-(5-methoxy-1-(3-morpholinopropyl)-1H-indol-3-yl)-1H-pyrrole-2,5-dione]: the IC50 at GSK-3β turned out to be 357 ± 17.1 nM.
Turning to `O=C1NC(=O)C(c2cn(CCCn3ccnc3)c3ccccc23)=C1c1noc2ccccc12` [7j, 3-(1-(3-(1H-Imidazol-1-yl)propyl)-1H-indol-3-yl)-4-(benzo[d]isoxazol-3-yl)-1H-pyrrole-2,5-dione], the IC50 at GSK-3β amounted to 0.73 ± 0.02 nM. Moreover, the “GSK-3β inhibitory potency, fold more potent than compound 7a” value at GSK-3β (ratio of IC50 values, versus 7a) is on record as “about 460 fold”. At GSK-3β, the “Selectivity for GSK-3β over other tested kinases” value is given as “high selectivity”. Besides, the inhibition at 2 µM at PKC-epsilon worked out at 10.9%; on JAK2, 4.9%; at BRAF, 0.8%; on IKK2, 3.5%; at Drak2, 4.47%.
Regarding `CCCCn1cc(C2=C(c3noc4ccccc34)C(=O)NC2=O)c2ccccc21` [7p, 3-(Benzo[d]isoxazol-3-yl)-4-(1-butyl-1H-indol-3-yl)-1H-pyrrole-2,5-dione], the IC50 on GSK-3β came to 58.7 ± 2.8 nM.
On to `O=C1NC(=O)C(c2cn(CCCn3cncn3)c3ccccc23)=C1c1noc2ccccc12` [7l, 3-(1-(3-(1H-1,2,4-Triazol-1-yl)propyl)-1H-indol-3-yl)-4-(benzo[d]isoxazol-3-yl)-1H-pyrrole-2,5-dione], for which the IC50 at GSK-3β was 20.9 ± 5.1 nM.

The values above are taken from paper PMC6270165, “Synthesis and Biological Evaluation of 3-Benzisoxazolyl-4-indolylmaleimides as Potent, Selective Inhibitors of Glycogen Synthase Kinase-3β” (Molecules, 2013).
